The results in this text go back to US6506784B1, “Use of 1,3-substituted pyrazol-5-yl sulfonates as pesticides” (3-Dimensional Pharmaceuticals, Inc., priority 1999, dated 2003).

Molecules are shown by their SMILES.

The assay addresses Mouse Brain GABA Receptors. As to the kind of experiment: In vitro assay of ability to bind mouse brain GABA receptors (3H-EBOB displacement, mouse brain membranes). Particulars: inhibition of 3H-EBOB binding to mouse brain membranes; NI = non-inhibitor. How it is done: Mouse brains were obtained from carbon dioxide-asphyxiated Swiss-Webster mice, washed with phosphate-buffered saline, and used either fresh or after storage at −80° C. for up to 10 months. Unless specified, all preparation steps were performed at 0-4° C. For each preparation, 20 brains were suspended in about 40 mL of 0.32 M sucrose and homogenized for about 2 minutes, using a Tissumizer™ homogenizer equipped with a SDT-100EN probe (available from Tekmar-Dohrmann, Cincinnati, Ohio) running at 50% of its maximum speed. The extract was centrifuged for about 5 min at about 1000×g to pellet intact brain tissue. The supernatant was retained and the pellet washed with an additional 40 mL of 0.32 M sucrose and centrifuged at 1000×g for about 5 minutes. The 1000×g supernatants were combined and centrifuged at about 10,000×g for about 20 min to pellet membranes. The 10,000×g supernatant was discarded and the pellet was resuspended in about 20 mL of water containing 1 mM EDTA. The sample was dialyzed two times for about 3 hours each against about 3 L of water. The sample was then centrifuged at about 25,000×g for about 30 min to pellet the membranes. After centrifugation, the supernatant was discarded and the pellet recovered. The protein concentration of the pellet was determined by the Bio-Rad Protein Assay (available from Bio-Rad Laboratories, Hercules, Calif.) using bovine serum albumin as a standard. The membranes were aliquoted and stored at −80° C. for up to 6 months before use.
Mouse brain membranes were prepared as described above from dissected mouse brains. Test compounds were dissolved in dimethylsulfoxide (DMSO) at concentrations ranging from about 2 nM to about 100 mM. About 1 μL of a dissolved test compound was dispensed into a well of a 96-well polystyrene plate. About 100 μL of ice cold assay buffer (10 mM phosphate, 300 mM NaCl, pH 7.5) containing 5.2 nM 4′-Ethynyl-4-n-[2,3-^3H2]propylbicycloorthobenzoate (^3H-EBOB, 38 Ci/mmol, available from NEN Life Science Products, Boston, Mass.) was added to the well, followed by about 100 μL of ice cold assay buffer containing about 0.25-0.5 mg/ml mouse brain membranes. Control wells were prepared the same way except that the mouse brain membranes were omitted from the “negative” wells, and the test compounds were omitted from the “positive” wells. The samples were incubated for about 45 min at about 24° C. and then filtered on a 0.1% (w/v) polyethylenimine-soaked glass fiber Filtermat A (available from EG&G Wallac Inc., Gaithersburg, Md.) followed by four 100 mL rinses of cold assay buffer using a Harvester 96® cell harvester (available from Tomtec, Orange, Conn.). The filtermat was air dried and radioactivity bound to the filtermat was detected with either a 1450 MicroBeta® Trilux scintillation counter (available from EG&G Wallac Inc.) or a Topcount NXT™ scintillation counter (available from Packard Instrument Co., Meriden, Conn.) using standard methods.
Specific binding was considered to be the difference between total ^3H bound to the mouse brain membranes in the absence of any inhibitors and nonspecific ^3H bound to the mouse brain membranes upon the addition of 5 μM unlabeled EBOB. The average radioactivity contained in the “negative” wells was subtracted from each of the assay wells. […] This value was calculated by plotting the data on a log-linear plot and either dropping a line to the x-axis perpendicular to a line drawn to the y-axis at approximately 50% inhibition of ^3H-EBOB binding, or by fitting the data to the formula I=XY/(X+Z), in which I is the percent inhibition of ^3H-EBOB binding, X is the inhibitor concentration, Y is the maximum percent inhibition of ^3H-EBOB binding observed, and Z is the calculated IC50.
A word on the IC50: it is the concentration needed to halve the response being measured. Low values mean greater potency, high ones weaker potency. The compound `Cn1nc(C(F)(F)F)cc1OS(=O)(=O)c1cccc(F)c1` [compound 8] showed a concentration for half-maximal inhibition (IC50) of 0.16 µM.

In the case of `Cn1nc(C(F)(F)F)cc1OS(=O)(=O)c1ccc(Br)c(Br)c1` [compound 6], the half-maximal inhibitory concentration (IC50) stood at 12.5 µM.

In turn, `Cn1nc(C(F)(F)F)cc1OS(=O)(=O)c1ccc(C(F)(F)F)cc1Cl` [compound 5, 1-methyl-3-(trifluoromethyl)pyrazol-5-yl 2-chloro-4-(trifluoromethyl)benzenesulfonate] gave an IC50 of 14 µM.

In turn, `Cn1nc(C(F)(F)F)cc1OS(=O)(=O)c1ccc(Cl)c(Cl)c1` [compound 2] gave a concentration for half-maximal inhibition (IC50) of 9 µM.

In the case of `Cn1nc(C(C)(C)C)cc1OS(=O)(=O)c1ccc(Cl)cc1Cl` [compound 17], the IC50 came out at 5.4 µM.

In the case of `Cn1nc(C(F)(F)F)cc1OS(=O)(=O)c1cccc(Cl)c1` [compound 4], the IC50 amounted to 0.5 µM.

`Cn1nc(C(F)(F)F)cc1OS(=O)(=O)c1cc(Cl)ccc1Cl` [compound 3] gave an IC50 of 2 µM.

`Cc1cc(S(=O)(=O)Oc2cc(C(F)(F)F)nn2C)ccc1Cl` [compound 7] came in with an IC50 of 11 µM.

Turning to `Cc1nn(-c2ccccc2)c(OS(=O)(=O)c2ccc(F)cc2Cl)c1Cl` [compound 18], the IC50 came out at 1 µM.

The compound `Cn1nc(C(F)(F)F)cc1OS(=O)(=O)c1ccc(F)c(F)c1` [compound 10] came in with an IC50 of 1 µM.

`Cc1c(Cl)cccc1S(=O)(=O)Oc1cc(C(F)(F)F)nn1C` [compound 16] registered an IC50 of 12 µM.

The compound `Cn1nc(C(F)(F)F)cc1OS(=O)(=O)c1ccc(F)cc1Cl` [compound 20, 1-methyl-3-(trifluoromethyl)pyrazol-5-yl 2-chloro-4-fluorobenzenesulfonate] registered an IC50 of 3.3 µM.

On to `Cn1nc(C(F)(F)F)cc1OS(=O)(=O)c1c(F)cccc1F` [compound 9], for which the IC50 came out at 6 µM.

Consider `Cn1nc(C(F)(F)F)cc1OS(=O)(=O)c1ccc2ccccc2c1` [compound 13], for which the half-maximal inhibitory concentration (IC50) was determined as 3 µM.

As for `Cn1nc(C(F)(F)F)cc1OS(=O)(=O)c1cc(Cl)c(Cl)cc1Cl` [compound 1], the IC50 came out at 8.4 µM.

As for `Cc1cc(F)ccc1S(=O)(=O)Oc1cc(C(F)(F)F)nn1C` [compound 11], the IC50 was 3.6 µM.

On to `O=S(=O)(Oc1cc(C(F)(F)F)nn1-c1ccccc1)c1ccc(F)c(Cl)c1` [compound 14], for which the concentration for half-maximal inhibition (IC50) stood at 12 µM.

`Cn1nc(C(C)(C)C)cc1OS(=O)(=O)c1ccc(F)cc1Cl` [compound 19] gave an IC50 of 1.3 µM.

Compound `Cn1nc(C(F)(F)F)cc1OS(=O)(=O)c1ccc(Cl)cc1Cl` [compound 12, 1-methyl-3-(trifluoromethyl)pyrazol-5-yl 2,4-dichlorobenzenesulfonate] displayed an IC50 of 4.9 µM.
